# Patent publication US4156011A, “Sulphur- and oxygen-containing diaryl compounds” (priority 1974, dated 1979)
# Counter-ions that a name gives are not always drawn. Like-named read-outs stand apart in the source and are kept apart here.
# What was measured:
# [1] = Reduction of lipids and cholesterol in rats treated orally; format: in vivo; settings: for inhibition in vivo at 10 mg/kg / inhibition in vivo at 20 mg/kg: Rattus norvegicus, 72 h, 3 days; for inhibition in vivo at 10 mg/kg: oral 10 mg/kg; for inhibition in vivo at 20 mg/kg: oral 20 mg/kg
# [2] = system: platelets (aggregation induced by ADP); test: Anti-aggregation action, platelet aggregation induced by ADP; format: in vivo, male Wistar rats; settings: oral 100 mg/kg, 4 days; for inhibition at 100 mg/kg: Rattus norvegicus, Platelet, 96 h, read-out: inhibition of transmission (ADP test); for change in aggregation, ADP transmission: ADP at 1 μM
# Procedure: (b) by ADP: the inhibition of aggregation (that is to say the % transmission).
# (§1) In Table IV which follows have been shown the results relating to the anti-aggregation action of some products on the blood of male Wistar rats, the aggregating agents used being collagen/acetic acid diluted 1/10, and ADP at 1 μM.
# [3] = Reduction of lipids and cholesterol in rats treated orally; format: in vivo; settings: Rattus norvegicus
# Procedure: Some of the other results of the pharmacological tests which were carried out on rats are summarised below.
# Rats given a normal diet are treated orally at a daily dose of 50 mg/kg for 3 and 5 days. A reduction of about 20% in the concentration of cholesterol and lipids in the plasma is observed.
# [4] = system: platelets (aggregation induced by collagen); test: Anti-aggregation action, platelet aggregation induced by collagen; format: in vivo, male Wistar rats; settings: 4 days; for change in aggregation, collagen, latency period / change in aggregation, collagen, speed / change in aggregation, collagen, transmission: oral 100 mg/kg, collagen/acetic acid diluted 1/10
# Procedure: (a) by collagen: the inhibition of aggregation (which corresponds to the % transmission), the latency period and the speed; and
# as §1
# [5] = Solubility of the isolated product; settings: water
# [6] = system: blood platelet aggregation; test: Anti-aggregation action in rats (graded / in words); format: in vivo; set-up: key to Anti-aggregation action: -: zero activity; +: significant activity; ++: intense activity; +++: very intense activity; settings: for anti-aggregation activity (in words): results of Table IV
# Clinical tests in man = format: in vivo
# Procedure: The clinical tests have made it possible to confirm the pharmacological tests. Thus, in man, CRL 40,293 (Example 23) in the form of gelatine-coated pills containing 400 mg of active ingredient administered at the rate of 2 such pills twice daily has given good results in the treatment of circulatory complaints and especially of lipid disturbances.
# CRL 40,386 (Example 8) has been used in man for the treatment of hyperlipidaemia in the form of gelatine-coated pills each containing 300 mg of active ingredient at the rate of 2 to 6 such pills per day.
# [7] = Hypo-lipidaemic and hypo-cholesterolaemic action in rats on hyper-lipid diet; format: in vivo, Wistar rats; settings: Rattus norvegicus, 0.1 g/kg in rats
# From the text: A. a batch of rats receiving a normal diet (percentage inhibition=100%);
# B. a batch of rats receiving a hyper-lipid diet (percentage inhibition=0%);
# C. a batch of rats receiving the hyper-lipid diet B with a daily dose, of 0.1 g/kg, of a reference product having a lipidaemia-normalising action, namely Lipavlon [ethyl 2-(p-chlorophenoxy)-2-methyl-propionate];
# D. a batch of rats receiving the hyper-lipid diet B with a daily dose, of 0.1 g/kg, of another product having a lipidaemia-normalising action, namely LL 1558 [1,10-bis-(2-hydroxyethyl-thio)-decane]; and
# E. a batch of rats receiving the hyper-lipid diet B with a daily dose of 10 mg/kg and 25 mg/kg, where necessary, higher doses.
# In Table III which follows have been shown the results relating to CRL 40,201 (the product of Example 17) and CRL 40,202 (the product of Example 18) in respect of the hypo-lipidaemic action and hypo-cholesterolaemic action.
# [8] = format: in vivo; settings: oral, male rats
# Procedure: (§2) In female mice, the LD-50 on oral administration is 2,050 mg/kg. In male rats, the LD-0, on oral administration, is greater than 600 mg/kg.
# stomach and duodenum = test: Gastric tolerance in fasting rats; format: in vivo
# From the text: It has furthermore been observed that CRL 40,293 is a well-tolerated substance.
# [9] = system: cardio-vascular parameters; test: Cardio-vascular activity in anaesthetised dogs; format: in vivo; settings: intraduodenal 100 then 200 mg/kg
# Procedure: Three anaesthetised dogs are used for this study. The product is administered intraduodenally as a gum suspension.
# Two dogs with the thorax closed and respiring spontaneously are given CRL 40,293 at a dose of 100 mg/kg followed by 200 mg/kg, this second dose being administered 1 hour 30 minutes to 2 hours after the first.
# One dog with the thorax opened is given 100 mg/kg, followed after 1 hour by 200 mg/kg, of CRL 40,293.
# In these animals the effects of injections of noradrenalin, acetylcholine, tyramine, DMPP, histamine and serotonine were unchanged and the same is true of the effects of occlusion of the carotids and of stimulation of the central end and peripheral end of the vagus.
# in vivo = settings: mouse, oral, female mice
# Procedure: as §2
# [10] = Hypo-lipidaemic and hypo-cholesterolaemic action of other products (Table V); format: in vivo, rats; settings: for change in vivo at 50 mg/kg / change in vivo at 100 mg/kg / change in vivo at 200 mg/kg: Rattus norvegicus; for change in vivo at 50 mg/kg: 72 h, oral 50 mg/kg for 3 days; for change in vivo at 100 mg/kg / change in vivo at 200 mg/kg: 96 h; for change in vivo at 100 mg/kg: oral 100 mg/kg for 4 days; for change in vivo at 200 mg/kg: oral 200 mg/kg for 4 days
# From the text: The results of the anti-aggregation test and of the hypo-[…] action and hypo-cholesterolaemic action tests of other products of the invention have been […] Table V which follows, the code used being the following (for each dose shown): […]
# [11] = read-out: reduction in the cholesterol
# [12] = read-out: reduction in the lipids
# [13] = read-out: Total lipids (change)
# [14] = tablet of 250 to 500 mg, to prevent cardiovascular accidents, especially coronary insufficiency
compound,measurement,setting,value
"CC(COC(=O)C(C)Oc1ccc(Sc2ccc(Cl)cc2)cc1)SCCCCCCCCCCSC(C)COC(=O)C(C)Oc1ccc(Sc2ccc(Cl)cc2)cc1 (racemic) [CRL 40,391, (±)-2,15-Dimethyl-3,14-dithia-1,16-hexadecyl di-(±)-{2-[p-(p-chlorophenylthio)-phenoxy]-propionate}]",inhibition in vivo at 10 mg/kg,[1]; [11],32%
same,inhibition in vivo at 10 mg/kg,[1]; [12],17%
same,inhibition in vivo at 20 mg/kg,[1]; [11],43%
same,inhibition in vivo at 20 mg/kg,[1]; [12],21%
same,inhibition at 100 mg/kg,[2],19%
same,inhibition in vivo at 50 mg/kg,"[3]; 72 h, oral 50 mg/kg, 3 days, read-out: reduction in the cholesterol",42%
same,inhibition in vivo at 50 mg/kg,"[3]; 72 h, oral 50 mg/kg, 3 days, read-out: reduction in the lipids",29%
same,latency time (collagen test),"[4]; 100 mg/kg, unit not given",+40
same,speed (collagen test),"[4]; 100 mg/kg, unit not given",-32
"CC(C)(CNCCO)Oc1ccc(Sc2ccc(Cl)cc2)cc1 [CRL 40,238, N-Hydroxyethyl-4-(4-chlorophenylthio)-phenoxy-isobutylamine hydrochloride]",solubility in water (in words),[5],insoluble in water
same,"change in aggregation, ADP transmission",[2],-46%
same,anti-aggregation activity (in words),[6],the most interesting amongst them
same,"change in aggregation, collagen, latency period",[4],+18%
same,"change in aggregation, collagen, speed",[4],-52%
same,"change in aggregation, collagen, transmission",[4],-47%
"O=C(O)CSc1ccc(Oc2ccc(Cl)cc2)cc1 [CRL 40,271, 4-(4-Chlorophenoxy)-phenylthioacetic acid]",tolerance in man,"Clinical tests in man; gelatine-coated pill of 200 to 400 mg, 1 to 2 per day",well tolerated
same,treatment of circulatory complaints due to hyperlipidaemias,"Clinical tests in man; man, gelatine-coated pill of 200 to 400 mg, 1 to 2 per day",efficient
same,inhibition at 100 mg/kg,[7]; read-out: cholesterol inhibition,54%
same,inhibition at 100 mg/kg,[7]; read-out: total lipids inhibition,35%
same,"change in aggregation, ADP transmission",[2],-28%
same,anti-aggregation activity (in words),[6],the most interesting amongst them
same,"change in aggregation, collagen, latency period",[4],+15%
same,"change in aggregation, collagen, speed",[4],-60%
same,"change in aggregation, collagen, transmission",[4],-25%
"O=C(CSc1ccc(Oc2ccc(Cl)cc2)cc1)NCCO [CRL 40,272, N-Hydroxyethyl-4-(4-chlorophenoxy)-phenylthioacetamide]","change in aggregation, ADP transmission",[2],-20%
same,"change in aggregation, collagen, latency period",[4],+16%
same,"change in aggregation, collagen, transmission",[4],0%
"OCCNCCSc1ccc(Oc2ccc(Cl)cc2)cc1 [CRL 40,274, N-Hydroxyethyl-2-[4-(4-chlorophenoxy)phenylthio]-ethylamine]",solubility in water (in words),[5],insoluble in water
same,"change in aggregation, ADP transmission",[2],-20%
same,"change in aggregation, collagen, speed",[4],0%
"CC(C)(CO)Sc1ccc(Oc2ccc(Cl)cc2)cc1 [CRL 40,276, 4-(4-Chlorophenoxy)-phenylthio-isobutanol]","change in aggregation, ADP transmission",[2],-20%
same,"change in aggregation, collagen, latency period",[4],+25%
same,"change in aggregation, collagen, speed",[4],-13%
same,"change in aggregation, collagen, transmission",[4],-31%
"OCCOc1ccc(Oc2ccc(Cl)cc2)cc1 [CRL 40,293, 2-[4-(4-Chlorophenoxy)-phenoxy]ethanol]",LD-0,[8],greater than 600 mg/kg
same,treatment of circulatory complaints and especially of lipid disturbances,"Clinical tests in man; man, gelatine-coated pills of 400 mg, 2 pills twice daily",good results
same,ulceration or inflammation of the stomach and of the duodenum,"stomach and duodenum; fasting rats, 1 g/kg through a probang, 8 hours after administration",no ulceration or inflammation of the stomach and of the duodenum is observed
same,tolerance (in words),"stomach and duodenum; rat, in vivo",well-tolerated
same,"change of parameters: arterial pressure, pulse rate, left intra-ventricular pressure, dp/dt, vertebral and femoral arterial flow rates, respiration","[9]; closed thorax, 2 hours' observation",None of the parameters measured changed
same,"effects of noradrenalin, acetylcholine, tyramine, DMPP, histamine and serotonine injections, carotid occlusion and vagus stimulation",[9]; dogs,unchanged
same,"change of parameters: arterial pressure, pulse rate, left intraventricular pressure, dp/dt, aorta flow rate, work of left ventricle, coronary arterial flow rate","[9]; opened thorax, 2 hours' observation",None of the parameters measured changed
same,LD50,in vivo,2050 mg/kg
same,decrease in cholesterol,"[1]; daily oral 10 mg/kg, 3-4 days",20%
same,decrease in total lipids,"[1]; daily oral 10 mg/kg, 3-4 days",20%
same,Anti-aggregation action,[6]; 100 mg/kg per day for 3 days,+++
same,Anti-aggregation action,[6]; oral 50 mg/kg for 3 days,++
same,change in vivo at 50 mg/kg,[10]; read-out: Cholesterol (change),-40%
same,change in vivo at 50 mg/kg,[10]; [13],-40%
same,hypo-lipidaemic and hypocholesterolaemic activity (in words),[10]; oral 50 mg/kg,good hypo-lipidaemic and hypocholesterolaemic activity
"Cl.OCCNCCOc1ccc(Oc2ccc(Cl)cc2)cc1 [CRL 40,295, N-Hydroxyethyl-2-[4-(4-chlorophenoxy)-phenoxy]-1-ethylamine hydrochloride]",tolerance in man,Clinical tests in man; [14],well tolerated
same,solubility,[5],200 mg/mL
same,Anti-aggregation action,[6]; oral 100 mg/kg for 4 days,+++
same,Anti-aggregation action,[6]; oral 200 mg/kg for 4 days,+++
same,change in vivo at 100 mg/kg,[10]; read-out: Cholesterol (change),-32%
same,change in vivo at 100 mg/kg,[10]; [13],-19%
same,change in vivo at 200 mg/kg,[10]; read-out: Cholesterol (change),-37%
same,change in vivo at 200 mg/kg,[10]; [13],-28%
"Cl.NCCOc1ccc(Oc2ccc(Cl)cc2)cc1 [CRL 40,317, 2-[4-(4-Chlorophenoxy)-phenoxy]-ethylamine hydrochloride]",tolerance in man,Clinical tests in man; [14],well tolerated
same,solubility in water (in words),[5],soluble in water
same,Anti-aggregation action,[6]; oral 100 mg/kg for 4 days,+
same,change in vivo at 100 mg/kg,[10]; [13],-37%
"O=C(CSc1ccc(Sc2ccc(Cl)cc2)cc1)OCCSCCCCCCCCCCSCCOC(=O)CSc1ccc(Sc2ccc(Cl)cc2)cc1 [CRL 40,394, 3,14-Dithia-1,16-hexadecyl di-[p-(p-chlorophenylthio)-phenylthio-acetate]]",inhibition in vivo at 50 mg/kg,"[3]; po, 120 h, 50 mg/kg, 5 days, read-out: reduction in the cholesterol",16%
same,inhibition in vivo at 50 mg/kg,"[3]; po, 120 h, 50 mg/kg, 5 days, read-out: reduction in the lipids",33%
"CC(C)(Sc1ccc(Sc2ccc(Cl)cc2)cc1)C(=O)OCCSCCCCCCCCCCSCCOC(=O)C(C)(C)Sc1ccc(Sc2ccc(Cl)cc2)cc1 [CRL 40,402, 3,14-Dithia-1,16-hexadecyl di-{2-[p-(p-chlorophenylthio)-phenylthio]-2-methylpropionate}]",inhibition in vivo at 20 mg/kg,[1]; [11],14%
same,inhibition in vivo at 20 mg/kg,[1]; [12],17%
same,cholesterol content and lipids content (in words),"[1]; oral 10, 20 and 50 mg/kg, 3 to 5 days",a reduction in the cholesterol content and lipids content is observed
same,inhibition at 100 mg/kg,[2],25%
